Test results: patent US20240383915A1, “OXAZEPINE COMPOUNDS AND USES THEREOF IN THE TREATMENT OF CANCER” (Genentech, Inc., priority 2021, published 2024)

Experiments:
KRas(G12V) = KRas(G12V) (Homo sapiens (Human), UniProt P01116, G12V); experiment: KRas(G12V) GDP HTRF (BODIPY-GDP exchange TR-FRET); format: biochemical
KRas = KRas (Homo sapiens (Human), UniProt P01116); experiment: KRas GDP HTRF (BODIPY-GDP exchange TR-FRET); format: biochemical
Experimental: KRAS Biochemical Assay—BODIPY-GDP Exchange TR-FRET. Biochemical compound potencies were assessed by evaluating inhibition of SOS1-mediated nucleotide exchange in KRAS G12D. The SOS1-promoted exchange of fluorescently-labeled GDP (BODIPY-GDP) was monitored by time-resolved fluorescence resonance energy transfer (TR-FRET). Compounds solubilized in DMSO were dispensed as concentration series into 384-well white assay plates. […] The reaction was initiated with the addition of 5 μL of 3 nM recombinant human SOS1 and 300 nM BODIPY-GDP in assay buffer. After a 60-minute incubation, the fluorescence was measured with excitation at 337 nm and emission at 490 and 520 nm. The TR-FRET ratio was determined as the fluorescence at 520 nm divided by the fluorescence at 490 nm multiplied by 10,000. […] The normalized TR-FRET results were plotted against compound concentration, and the data fit to a 4-parameter Hill equation to determine the IC50 values.

KRas(G12V), sequence (P01116-2 other isoform, or with tags, fused parts or gaps G12V): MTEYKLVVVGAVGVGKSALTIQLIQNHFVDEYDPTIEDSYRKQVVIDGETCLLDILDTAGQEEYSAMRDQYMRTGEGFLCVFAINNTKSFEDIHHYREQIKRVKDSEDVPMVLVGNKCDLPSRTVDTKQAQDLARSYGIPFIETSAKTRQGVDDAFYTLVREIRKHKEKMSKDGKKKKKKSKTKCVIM
KRas, sequence (P01116-2 other isoform, or with tags, fused parts or gaps): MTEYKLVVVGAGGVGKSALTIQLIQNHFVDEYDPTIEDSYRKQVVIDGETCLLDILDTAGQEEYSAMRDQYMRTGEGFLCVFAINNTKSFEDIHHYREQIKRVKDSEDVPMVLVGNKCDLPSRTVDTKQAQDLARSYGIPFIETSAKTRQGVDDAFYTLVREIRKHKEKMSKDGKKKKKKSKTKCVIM

Q: What does the source list for `Cc1cc(N)nc(-c2c(Cl)c3c4c(ncnc4c2F)N([C@H](C)c2cccnc2N)CCO3)c1C(F)(F)F` (atropisomer, axis not shown) [Example 53a, 6-((R)-4-((R)-1-(2-aminopyridin-3-yl)ethyl)-8-chloro-10-fluoro-5,6-dihydro-4H-[1,4]oxazepino[5,6,7-de]quinazolin-9-yl)-4-methyl-5-(trifluoromethyl)pyridin-2-amine]?
A: IC50 (KRas(G12V)): 0.37 nM; IC50 (KRas): 1.2 nM

Q: How did the IC50 (KRas(G12V)) turn out when `Cc1cc(N)nc(-c2c(Cl)c3c4c(ncnc4c2F)N([C@H](C)c2cccnc2N)CCO3)c1C(F)(F)F` (atropisomer, axis not shown) [Example 53b, 6-((S)-4-((R)-1-(2-aminopyridin-3-yl)ethyl)-8-chloro-10-fluoro-5,6-dihydro-4H-[1,4]oxazepino[5,6,7-de]quinazolin-9-yl)-4-methyl-5-(trifluoromethyl)pyridin-2-amine] was run?
A: 600 nM

Q: What about the IC50 (KRas) of the same molecule?
A: 2900 nM

Q: Which IC50 (KRas(G12V)) does the source give for `Cc1cc(N)nc(-c2c(Cl)c3c4c(nc(OC(C)(C)[C@@H]5CC(F)(F)CN5C)nc4c2F)N([C@H](C)c2cccnc2N)CCO3)c1C(F)(F)F` (atropisomer, axis not shown) [Example 72, 6-((R)-4-((R)-1-(2-aminopyridin-3-yl)ethyl)-8-chloro-2-((2-((S)-4,4-difluoro-1-methylpyrrolidin-2-yl)propan-2-yl)oxy)-10-fluoro-5,6-dihydro-4H-[1,4]oxazepino[5,6,7-de]quinazolin-9-yl)-4-methyl-5-(trifluoromethyl)pyridin-2-amine] here?
A: 12 nM

Q: And the IC50 (KRas)?
A: 143 nM

Q: Which results are given for `Cc1cc(N)nc(-c2c(Cl)c3c4c(nc(OC[C@@H]5CC(F)(F)CN5C)nc4c2F)N([C@H](C)c2ccnnc2N)CCO3)c1C(F)(F)F` (atropisomer, axis not shown) [Example 85, 4-((R)-1-((R)-9-(6-amino-4-methyl-3-(trifluoromethyl)pyridin-2-yl)-8-chloro-2-(((S)-4,4-difluoro-1-methylpyrrolidin-2-yl)methoxy)-10-fluoro-5,6-dihydro-4H-[1,4]oxazepino[5,6,7-de]quinazolin-4-yl)ethyl)pyridazin-3-amine]?
A: IC50 (KRas(G12V)): 0.09 nM; IC50 (KRas): 0.165 nM

Q: With `Cc1cc(N)nc(-c2c(Cl)c3c4c(nc(OC[C@H](C)N5CCOCC5)nc4c2F)N([C@H](C)c2cccnc2N)CCO3)c1C(F)(F)F` (atropisomer, axis not shown) [Example 95a, 6-((R)-4-((R)-1-(2-aminopyridin-3-yl)ethyl)-8-chloro-10-fluoro-2-((S)-2-morpholinopropoxy)-5,6-dihydro-4H-[1,4]oxazepino[5,6,7-de]quinazolin-9-yl)-4-methyl-5-(trifluoromethyl)pyridin-2-amine] as the molecule, how does the IC50 (KRas(G12V)) read?
A: 0.09 nM

Q: What about the IC50 (KRas) of the same molecule?
A: 0.83 nM

Q: How did the IC50 (KRas(G12V)) turn out when `Cc1cc(N)nc(-c2c(Cl)c3c4c(nc(OC[C@@H](C)N5CCOCC5)nc4c2F)N([C@H](C)c2cccnc2N)CCO3)c1C(F)(F)F` (atropisomer, axis not shown) [Example 95b, 6-((R)-4-((R)-1-(2-aminopyridin-3-yl)ethyl)-8-chloro-10-fluoro-2-((R)-2-morpholinopropoxy)-5,6-dihydro-4H-[1,4]oxazepino[5,6,7-de]quinazolin-9-yl)-4-methyl-5-(trifluoromethyl)pyridin-2-amine] was run?
A: 0.12 nM

Q: What about the IC50 (KRas) of the same molecule?
A: 0.484 nM

Q: How did the IC50 (KRas(G12V)) turn out when `Cc1cc(N)nc(-c2c(Cl)c3c4c(nc(OC[C@@H]5COCCN5)nc4c2F)N([C@H](C)c2cccnc2N)CCO3)c1C(F)(F)F` (atropisomer, axis not shown) [Example 96, 6-((R)-4-((R)-1-(2-aminopyridin-3-yl)ethyl)-8-chloro-10-fluoro-2-(((S)-morpholin-3-yl)methoxy)-5,6-dihydro-4H-[1,4]oxazepino[5,6,7-de]quinazolin-9-yl)-4-methyl-5-(trifluoromethyl)pyridin-2-amine] was run?
A: 0.08 nM

Q: And the IC50 (KRas)?
A: 0.299 nM

Q: `Cc1cc(N)nc(-c2c(Cl)c3c4c(nc(OC[C@H]5COCCN5)nc4c2F)N([C@H](C)c2cccnc2N)CCO3)c1C(F)(F)F` (atropisomer, axis not shown) [Example 97, 6-((R)-4-((R)-1-(2-aminopyridin-3-yl)ethyl)-8-chloro-10-fluoro-2-(((R)-morpholin-3-yl)methoxy)-5,6-dihydro-4H-[1,4]oxazepino[5,6,7-de]quinazolin-9-yl)-4-methyl-5-(trifluoromethyl)pyridin-2-amine] was tested. Which IC50 (KRas(G12V)) did it give?
A: 0.08 nM

Q: What about the IC50 (KRas) of the same molecule?
A: 0.359 nM

Q: Which IC50 (KRas(G12V)) does the source give for `Cc1cc(N)nc(-c2c(Cl)c3c4c(nc(OCC56C[C@@H](F)CN5C[C@H](F)C6)nc4c2F)N([C@H](C)c2cccnc2N)CCO3)c1C(F)(F)F` (atropisomer, axis not shown) [Example 98a, 6-((R)-4-((R)-1-(2-aminopyridin-3-yl)ethyl)-8-chloro-2-(((2R,6R)-2,6-difluorotetrahydro-1H-pyrrolizin-7a(5H)-yl)methoxy)-10-fluoro-5,6-dihydro-4H-[1,4]oxazepino[5,6,7-de]quinazolin-9-yl)-4-methyl-5-(trifluoromethyl)pyridin-2-amine] here?
A: 0.11 nM

Q: And the IC50 (KRas)?
A: 0.557 nM

Q: How did the IC50 (KRas(G12V)) turn out when `Cc1cc(N)nc(-c2c(Cl)c3c4c(nc(OC[C@@H]5C[C@H]6COCCN65)nc4c2F)N([C@H](C)c2cccnc2N)CCO3)c1C(F)(F)F` (atropisomer, axis not shown) [Example 99a, 6-((R)-2-(((6S,8S)-4-oxa-1-azabicyclo[4.2.0]octan-8-yl)methoxy)-4-((R)-1-(2-aminopyridin-3-yl)ethyl)-8-chloro-10-fluoro-5,6-dihydro-4H-[1,4]oxazepino[5,6,7-de]quinazolin-9-yl)-4-methyl-5-(trifluoromethyl)pyridin-2-amine] was run?
A: 0.07 nM

Q: And the IC50 (KRas)?
A: 0.125 nM

Q: What does the source list for `Cc1cc(N)nc(-c2c(Cl)c3c4c(nc(OC[C@H]5C[C@@H]6COCCN65)nc4c2F)N([C@H](C)c2cccnc2N)CCO3)c1C(F)(F)F` (atropisomer, axis not shown) [Example 99b, 6-((R)-2-(((6R,8R)-4-oxa-1-azabicyclo[4.2.0]octan-8-yl)methoxy)-4-((R)-1-(2-aminopyridin-3-yl)ethyl)-8-chloro-10-fluoro-5,6-dihydro-4H-[1,4]oxazepino[5,6,7-de]quinazolin-9-yl)-4-methyl-5-(trifluoromethyl)pyridin-2-amine]?
A: IC50 (KRas(G12V)): 0.08 nM; IC50 (KRas): 0.0748 nM

Q: For `Cc1cc(N)nc(-c2c(Cl)c3c4c(nc(OC[C@@H]5CCCN5CC(F)F)nc4c2F)N([C@H](C)c2cncnc2N)CCO3)c1C(F)(F)F` (atropisomer, axis not shown) [Example 103a, 5-((R)-1-((R)-9-(6-amino-4-methyl-3-(trifluoromethyl)pyridin-2-yl)-8-chloro-2-(((S)-1-(2,2-difluoroethyl)pyrrolidin-2-yl)methoxy)-10-fluoro-5,6-dihydro-4H-[1,4]oxazepino[5,6,7-de]quinazolin-4-yl)ethyl)pyrimidin-4-amine], which IC50 (KRas) is on record?
A: 1.13 nM

Q: For `COCCN1CCC(Oc2nc3c4c(c(Cl)c(-c5nc(N)cc(C)c5C(F)(F)F)c(F)c4n2)OCCN3[C@H](C)c2cccnc2N)CC1` (atropisomer, axis not shown) [Example 126, 6-((R)-4-((R)-1-(2-aminopyridin-3-yl)ethyl)-8-chloro-10-fluoro-2-((1-(2-methoxyethyl)piperidin-4-yl)oxy)-5,6-dihydro-4H-[1,4]oxazepino[5,6,7-de]quinazolin-9-yl)-4-methyl-5-(trifluoromethyl)pyridin-2-amine], which IC50 (KRas(G12V)) is on record?
A: 0.34 nM

Q: What about the IC50 (KRas) of the same molecule?
A: 2.87 nM

Q: Which results are given for `Cc1cc(N)nc(-c2c(Cl)c3c4c(nc(OC[C@@H]5CCCN5C)nc4c2F)N([C@H](C)c2cccnc2N)CCO3)c1C(F)(F)F` (atropisomer, axis not shown) [Example 127, 6-((R)-4-((R)-1-(2-aminopyridin-3-yl)ethyl)-8-chloro-10-fluoro-2-(((S)-1-methylpyrrolidin-2-yl)methoxy)-5,6-dihydro-4H-[1,4]oxazepino[5,6,7-de]quinazolin-9-yl)-4-methyl-5-(trifluoromethyl)pyridin-2-amine]?
A: IC50 (KRas(G12V)): 0.07 nM; IC50 (KRas): 0.0894 nM

Q: With `Cc1cc(N)nc(-c2c(Cl)c3c4c(nc(OC[C@]56CCCN5CCOC6)nc4c2F)N([C@H](C)c2cccnc2N)CCO3)c1C(F)(F)F` (atropisomer, axis not shown) [Example 128a, 6-((R)-4-((R)-1-(2-aminopyridin-3-yl)ethyl)-8-chloro-10-fluoro-2-(((R)-tetrahydro-1H-pyrrolo[2,1-c][1,4]oxazin-8a(6H)-yl)methoxy)-5,6-dihydro-4H-[1,4]oxazepino[5,6,7-de]quinazolin-9-yl)-4-methyl-5-(trifluoromethyl)pyridin-2-amine] as the molecule, how does the IC50 (KRas(G12V)) read?
A: 0.09 nM

Q: And the IC50 (KRas)?
A: 0.149 nM

Q: `Cc1cc(N)nc(-c2c(Cl)c3c4c(nc(OC[C@@]56CCCN5CCOC6)nc4c2F)N([C@H](C)c2cccnc2N)CCO3)c1C(F)(F)F` (atropisomer, axis not shown) [Example 128b, 6-((R)-4-((R)-1-(2-aminopyridin-3-yl)ethyl)-8-chloro-10-fluoro-2-(((S)-tetrahydro-1H-pyrrolo[2,1-c][1,4]oxazin-8a(6H)-yl)methoxy)-5,6-dihydro-4H-[1,4]oxazepino[5,6,7-de]quinazolin-9-yl)-4-methyl-5-(trifluoromethyl)pyridin-2-amine] was tested. Which IC50 (KRas(G12V)) did it give?
A: 0.19 nM

Q: What about the IC50 (KRas) of the same molecule?
A: 0.469 nM

Q: `Cc1cc(N)nc(-c2c(Cl)c3c4c(nc(OC[C@@H]5CCCN5CC(F)F)nc4c2F)N([C@H](C)c2nccnc2N)CCO3)c1C(F)(F)F` (atropisomer, axis not shown) [Example 158a, 3-((R)-1-((R)-9-(6-amino-4-methyl-3-(trifluoromethyl)pyridin-2-yl)-8-chloro-2-(((S)-1-(2,2-difluoroethyl)pyrrolidin-2-yl)methoxy)-10-fluoro-5,6-dihydro-4H-[1,4]oxazepino[5,6,7-de]quinazolin-4-yl)ethyl)pyrazin-2-amine] was tested. Which IC50 (KRas(G12V)) did it give?
A: 0.76 nM

Q: And the IC50 (KRas)?
A: 5.41 nM
